TGI and GI50 data for 33 compounds are collected here from PubChem BioAssay (NCI).

Several values for one entry are separate records, joined by “and”; a condition that tells them apart may be missing. Equal values may be shown once.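 Interpolation was linear, between the two tested concentrations surrounding the appropriate level; five concentrations were tested over 48 hours in 96-well plates. Abbreviation: GI50, concentration required for 50% inhibition of growth. TGI is the concentration that stops growth completely.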

Some test systems named below: M19-MEL melanoma; KM20L2 colon; XF 498 CNS; T-47D breast; RXF-631 renal; MDA-N.
Holding throughout (experiment): growth of human tumour cells (NCI), 48 h

As to `COc1ccc2c(c1)CC[C@@H]1C2CC[C@]2(C)C(=O)NC(=O)CC12` (stereo not given in full), the TGI in the experiment on M19-MEL melanoma, with KM20L2 colon and in the experiment with XF 498 CNS was above 100 µM in each case.
For `COc1ccc(/C=C(\C#N)c2cc3ccccc3n2C)cc1`, in the experiment on T-47D breast, the GI50 is 0.389 µM and the TGI was above 100 µM.
Turning to `O=C(NNS(=O)(=O)c1cc(C(F)(F)F)cc(C(F)(F)F)c1)c1cnn(-c2ccc(Cl)cc2)c1C(F)(F)F`, in the experiment with T-47D breast, the GI50 was 17.5 µM and the TGI worked out at 45 µM.
Take `COc1ccccc1/C=C\c1cc(OC)c(OC)c(OC)c1`: the TGI is above 100 µM with M19-MEL melanoma, above 100 µM with RXF-631 renal and 48 µM in the experiment with XF 498 CNS.
In the case of `COC(=O)C1=C(C(=O)OC)C2(C(=O)OC)OC1(OC)C(C1(C(=O)OC)C(C(=O)OC)=C1C(=O)OC)=C2C(=O)OC` (stereo not given), the TGI in the experiment on M19-MEL melanoma, in the experiment on KM20L2 colon and in the experiment on XF 498 CNS was above 100 µM in each case.
For the compound `Oc1ccc2ccccc2c1N=Nc1ccccc1`, the TGI with MDA-N is above 100 µM. Also, in the experiment on T-47D breast, the GI50 is 22.5 µM and > 100 µM; the TGI is above 100 µM.
With `CC(=O)/C(C)=N/N/C(N)=N\S(=O)(=O)c1cc(C(=O)Nc2ccccc2)c(Cl)cc1SCc1ccccc1`, in the experiment with T-47D breast, the GI50 was above 100 µM and the TGI is above 100 µM.
With `COc1ccc(C(O)c2cc3c(N)c(C(=O)Nc4cccc(Br)c4)sc3nc2C)cc1` (stereo not given), in the experiment on T-47D breast, the GI50 was 22.5 µM and the TGI is above 100 µM.
Take `Cc1ccc(N2C(=O)/C(=C3\Sc4c(nc(C)[nH]c4=O)N3c3ccccc3)SC2=S)cc1`: the values for the TGI with M19-MEL melanoma, with KM20L2 colon and in the experiment on XF 498 CNS were above 100 µM, above 100 µM and 51.8 µM, respectively.
Regarding `O=c1[nH]c(=S)[nH]c(O)c1/C=C1\C=CC=N1`, the TGI is above 100 µM in the experiment with M19-MEL melanoma, 41.1 µM in the experiment with KM20L2 colon and 32.3 µM in the experiment with XF 498 CNS.
Regarding `C#Cc1ccc(NC(=O)c2ccc(/C=C/C(=O)c3nccn3C)cc2)cc1`, in the experiment with T-47D breast, the GI50 is 0.521 µM and the TGI was found to be 2.44 µM.
As to `CC#CC(=O)N1CCC[C@H]1c1nc(-c2ccc(C(=O)Nc3ccccn3)cc2)c2c(N)nccn12`, in the experiment on T-47D breast, the GI50 was 10.1 µM and the TGI was above 100 µM.
Take `COc1ccc(/C=C2\COc3ccc(-c4ccccc4)cc3C2=O)cc1O`: in the experiment on T-47D breast, the GI50 was 3.28 µM and the TGI came out at 30.2 µM.
Turning to `O=Cc1coc2ccccc2c1=O`, the results for the TGI with MDA-N and in the experiment on T-47D breast were 52.3 µM and above 100 µM, respectively.
Turning to `Cc1nc(NC(=O)N2CCC[C@H]2C(N)=O)sc1-c1ccnc(C(C)(C)C(F)(F)F)c1`, in the experiment with T-47D breast, the GI50 was 0.0412 µM and 0.0507 µM; the TGI was 1.79 µM and 0.599 µM.
On to `NC(CSC(c1ccccc1)(c1ccccc1)c1ccc2ccccc2c1)C(=O)O` (stereo not given), for which, in the experiment on T-47D breast, the GI50 is 0.132 µM and the TGI amounted to 18 µM.
Take `Cn1c(=O)c2[nH]c(COc3ccc(C(C)(C)C)cc3)nc2n(C)c1=O`: in the experiment on T-47D breast, the GI50 is 11.9 µM and the TGI is above 100 µM.
Consider `COC1=C(OC)CCC(/C(C#N)=C/c2ccc(OC)c(OC)c2)=C1`, for which the TGI with M19-MEL melanoma, in the experiment with KM20L2 colon and in the experiment on RXF-631 renal was above 100 µM throughout.
`Cc1ccc(Nc2ccc(Nc3ccc(C)cc3)c3c2C(=O)c2c(O)ccc(O)c2C3=O)cc1`: the TGI in the experiment on M19-MEL melanoma and in the experiment on XF 498 CNS was above 100 µM throughout.
As for `CCNCC(O)c1ccc(N)c([N+](=O)[O-])c1` (stereo not given), the TGI in the experiment on MDA-N and with T-47D breast was above 100 µM each time.
For `O=C(/C=C/c1cccc(Cl)c1)c1ccc(Cl)cc1Cl`, in the experiment on T-47D breast, the GI50 was 9.11 µM and the TGI is 25.9 µM.
Consider `O=[As](O)(O)c1ccc(Cc2ccc([As](=O)(O)O)cc2)cc1`, for which the TGI in the experiment on MDA-N was determined as 1.65 µM; with T-47D breast, 1.87 µM.
Regarding `O=C1/C(=C/c2cccs2)CCC/C1=C\c1cccs1`, in the experiment with T-47D breast, the GI50 is 2.13 µM and the TGI was above 72.8 µM.
As for `O=c1cccccc1NCCCCNc1cccccc1=O`, the TGI in the experiment on M19-MEL melanoma, in the experiment on KM20L2 colon and with RXF-631 renal was above 100 µM throughout.
For the compound `Oc1ccccc1-n1c(-c2ccccc2)ccc1-c1ccccc1`, in the experiment with T-47D breast, the GI50 is 4.12 µM and the TGI was 32.9 µM.
`COc1cc(C2C(C(=O)Nc3ccccc3)=C(C)NC(C)=C2C(=O)Nc2ccccc2)ccc1O`: the TGI in the experiment on M19-MEL melanoma is above 100 µM; in the experiment on KM20L2 colon, 40 µM; in the experiment with XF 498 CNS, above 100 µM.
Regarding `CC1(C)OCN(c2ccc(Cl)cc2)Cn2c1nc1ccccc12`, the TGI with M19-MEL melanoma, in the experiment on KM20L2 colon, with MDA-N, with T-47D breast and in the experiment on XF 498 CNS was above 100 µM in each case.
Consider `CC(=O)Oc1cccc2c1C(=O)c1c(OC(C)=O)cc(C)cc1C2=O`, for which the TGI in the experiment with MDA-N and in the experiment with T-47D breast was above 100 µM in each case.
Turning to `COc1ccc2c3c(c(OCCCN(C)C)nc2c1)-c1ccc(Cl)cc1C3=O`, in the experiment with T-47D breast, the GI50 was 12.5 µM and the TGI was found to be 48.3 µM.
Consider `CCOC(=O)C(C)(C)Oc1ccc2c(-c3ccc(Cl)cc3)cc(=O)oc2c1`, for which the TGI with M19-MEL melanoma, with KM20L2 colon and in the experiment on RXF-631 renal was above 100 µM in each case.
For `CCOC(=O)C12CC1(C(=O)OCC)C1CCC2C1` (stereo not given), the TGI in the experiment on M19-MEL melanoma and in the experiment with RXF-631 renal was above 100 µM throughout.
On to `O=c1c([Se]c2coc3ccccc3c2=O)coc2ccccc12`, for which the results for the TGI with M19-MEL melanoma, with KM20L2 colon and in the experiment on XF 498 CNS were 28.6 µM, 26.4 µM and 30.5 µM, respectively.
As for `CC(C)C(N)(C(=O)O)c1ccccc1` (stereo not given), the TGI in the experiment with MDA-N and in the experiment with T-47D breast was above 100 µM each time.
